Source: patent US20090197947A1, “MEDICAMENTS AND METHODS FOR LOWERING PLASMA LIPID LEVELS AND SCREENING DRUGS” (The Research Foundation of State University of New York, priority 2008, published 2009)

Tests used:
[1] = tested on: AC29 cells that do not express MTP but stably express ACAT1 or ACAT2; experiment: Cellular cholesteryl ester synthesis in AC29 cells that do not express MTP; type: cell-based; settings: AC29 cells stably expressing ACAT1 or ACAT2
Description: Next, the effect of these inhibitors on cellular cholesteryl ester synthesis was examined. […] In these cells, MTP inhibitor BMS 197636 had no effect on cellular cholesteryl ester synthesis (FIG. 9, J and K). However, incubation of these cells with ACAT inhibitor 148817 reduced radio-labeled cholesteryl esters by 83-87% (FIG. 9, J, K).

Caco-2 cells = Caco-2 cells treated with MTP and ACAT antagonists, alone or in combination; type: cell-based; design: inhibition of cellular esterification of [3H] cholesterol: dose or concentration left out as unconfirmed
Description: Thus, it was hypothesized that MTP (BMS 197636) and ACAT (1 488 17) antagonists would inhibit cellular esterification by independent mechanisms and their effect would be additive. To test this hypothesis, Caco-2 cells were treated with different amounts of these inhibitors, alone or in combination, and the inhibition was compared with cells that were not exposed to any inhibitors (FIG. 9, L-N). Increasing concentrations of BMS 197636 decreased apoB secretion (FIG. 9, L). In contrast, ACAT inhibitor had no effect on apoB secretion. […] ApoAI secretion was resistant to both the inhibitors (FIG. 9, M). […] These inhibitors in combination reduced cholesteryl ester synthesis by 45 +/−4% (FIG. 9, N). Thus, MTP and ACAT act in tandem and facilitate cellular cholesteryl esterification.

[2] = Effect of efflux enhancer and cholesterol biosynthesis inhibitor on plasma lipids and liver function enzymes in PBS and pIpC injected animals; type: in vivo, mice; settings: 50 mg/Kg oral gavage every day for 2 weeks; for plasma cholesterol levels / plasma triglyceride levels: MTP gene deleted (pIpC injected) mice
Description: In this Example, blood was collected from tail vein of animals on day 1 of the experiment and used to measure plasma lipid and liver function enzyme levels (Day 1, “Control”). Conditional MTP deletion was achieved by injecting pIpC three times in […] mice on alternate days. Control group mice (n=2) received either PBS (open bars) or pIpC (closed bars) injections. […] On day 8, blood was again collected to measure changes in plasma lipid and liver function enzyme levels. Mice were sacrificed on day 16 and plasma samples were then assayed for total cholesterol (A), triglyceride (B), ALT (C) and AST (D) levels. Each measurement was performed in triplicate. The asterisks show statistically significant differences between PBS and pIpC injected mice. (*, p<0.05, **, p<0.01, ***, p<0.001.)

[3] = Effect of efflux enhancer and cholesterol biosynthesis inhibitor on hepatic mRNA, MTP activity and lipid levels in PBS and pIpC injected animals; type: in vivo; settings: liver of drug administered pIpC injected mice
Description: In this Example, total RNA was isolated from the liver of drug administered PBS and pIpC injected mice and used for quantitative RT-PCR of HMG-CoA reductase (FIG. 5, Panel A), ABCA1 (FIG. 5, Panel B), MTP (FIG. 5, Panel C) as well as ARPp0 mRNA. The ratio of candidate gene to ARPp0 in one PBS injected mice was used for normalization. Liver tissues were also used to measure MTP activity (FIG. 5, Panel D). In addition, triglyceride (FIG. 5, Panel E), total (FIG. 5, Panel F), Free (FIG. 5, Panel G) and Esterified (FIG. 5, Panel H) cholesterol levels were measured. (*, p<0.05, **, p<0.01, ***, p<0.001.)

## CCCNC(=O)C1(CCCCN2CCC(N3Cc4ccccc4C3=O)CC2)c2ccccc2-c2ccccc21 [BMS 197636]
[1]
  cellular cholesteryl ester synthesis: no effect
Caco-2 cells
  ApoAI secretion: resistant
Caco-2 cells; increasing concentrations, inhibitor alone
  apoB secretion: decreased
Caco-2 cells; individually
  inhibition of cellular esterification of [3H] cholesterol: 25 +/−2%

## O=S(=O)(c1ccccc1)N(CC(F)(F)F)c1ccc(C(O)(C(F)(F)F)C(F)(F)F)cc1 [T0901317]
[2]
  plasma cholesterol levels: not significantly altered
  plasma triglyceride levels: not significantly altered
[3]
  increases in hepatic free cholesterol levels in MTP gene deleted animals: reduced

## CCCCCCCCCCCCCCCC(=O)O[C@H]1CC[C@@]2(C)C(=CC[C@H]3[C@@H]4CC[C@H]([C@H](C)CCCC(C)C)[C@@]4(C)CC[C@@H]32)C1 [cholesteryl palmitate]
Liver microsomes; liver microsomes incubated 30 min, centrifuged
  concentration up to which microsomes are enriched with cholesterol (saturation thereafter): approximately 1.25 μM
Liver microsomes; liver microsomes, 0.5 μM cholesteryl palmitate
  inhibition of cholesteryl ester synthesis: 32%

## CC[C@H](C)C(=O)O[C@H]1C[C@@H](C)C=C2C=C[C@H](C)[C@H](CC[C@@H]3C[C@@H](O)CC(=O)O3)[C@H]21 [lovastatin, Lovastatin]
[2]
  plasma cholesterol levels: not significantly altered
  plasma triglyceride levels: not significantly altered
[2]; pIpC injected mice
  increase in plasma ALT levels due to MTP gene deletion: not seen
  increase in plasma AST levels due to MTP gene deletion: not seen
[3]
  increases in hepatic free cholesterol levels in MTP gene deleted animals: reduced
